Test results reported in the supplement of paper PMC10307832.

What was measured:
Test in all cases: relative viability (nuclei count vs DMSO), 5 days (fraction); higher = more cells survive
Veliparib + Dasatinib = compound: C[C@]1(c2nc3c(C(N)=O)cccc3[nH]2)CCCN1 [Veliparib] + Cc1nc(Nc2ncc(C(=O)Nc3c(C)cccc3Cl)s2)cc(N2CCN(CCO)CC2)n1 [Dasatinib] (partner 0.075 µM)
How it was run: (§1)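 A single step with final 0.05% Triton X-100, 1% formaldehyde and 1 ug/ml Hoechst fixed the cells and stained nuclei 5 days after treatment. Lung cancer cell lines in 1536-well plates had been treated by pin tool the day after seeding with one drug alone or a fixed anchor-drug dose plus five library-drug doses (not always all listed) in √10 steps, and nuclei were counted on 4× images. Relative viability is the ratio of nuclei in treated wells to nuclei in vehicle wells, taken as the median of duplicate plates.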

[1] = compound: COC1=CC=C(C=C1)CN2C=CC3=C2C=C(C=C3)C(=O)NO + C[C@]1(O)C[C@@H](c2nc(-c3ccc4ccc(-c5ccccc5)nc4c3)c3c(N)nccn32)C1 [Linsitinib] (partner 1 µM)
How it was run: as §1

Veliparib + Palbociclib = compound: C[C@]1(c2nc3c(C(N)=O)cccc3[nH]2)CCCN1 [Veliparib] + CC(=O)c1c(C)c2cnc(Nc3ccc(N4CCNCC4)cn3)nc2n(C2CCCC2)c1=O [Palbociclib] (partner 0.5 µM)
How it was run: as §1

[2] = compound: COC1=CC=C(C=C1)CN2C=CC3=C2C=C(C=C3)C(=O)NO + CC(C)C[C@H](NC(=O)[C@H](Cc1ccccc1)NC(=O)c1cnccn1)B(O)O [Bortezomib] (partner 0.002 µM)
How it was run: as §1

NCI-H1975 gave a relative viability (Veliparib + Dasatinib; first compound 0.02 µM) of 0.336, a relative viability (Veliparib + Dasatinib; first compound 0.06325 µM) of 0.37 and a relative viability (Veliparib + Dasatinib; first compound 0.2 µM) of 0.331. It also gave a relative viability (Veliparib + Dasatinib; first compound 0.6325 µM) of 0.368, a relative viability (Veliparib + Dasatinib; first compound 2 µM) of 0.372 and a relative viability ([1]; first compound 0.08 µM) of 0.929. It also gave a relative viability ([1]; first compound 0.253 µM) of 1.07, a relative viability ([1]; first compound 0.8 µM) of 0.956 and a relative viability ([1]; first compound 2.53 µM) of 0.931. For the same cell line, the relative viability ([1]; first compound 8 µM) was 0.863, the relative viability (Veliparib + Palbociclib; first compound 0.02 µM) was 0.533 and the relative viability (Veliparib + Palbociclib; first compound 0.06325 µM) was 0.544. For the same cell line, the relative viability (Veliparib + Palbociclib; first compound 0.2 µM) was 0.513, the relative viability (Veliparib + Palbociclib; first compound 0.6325 µM) was 0.543 and the relative viability (Veliparib + Palbociclib; first compound 2 µM) was 0.535. It also gave a relative viability ([2]; first compound 0.08 µM) of 0.422, a relative viability ([2]; first compound 0.253 µM) of 0.382 and a relative viability ([2]; first compound 0.8 µM) of 0.408. The relative viability ([2]; first compound 2.53 µM) was 0.455 and the relative viability ([2]; first compound 8 µM) was 0.363.
For NCI-H1993, the relative viability (Veliparib + Dasatinib; first compound 0.02 µM) was 0.496, the relative viability (Veliparib + Dasatinib; first compound 0.06325 µM) was 0.571 and the relative viability (Veliparib + Dasatinib; first compound 0.2 µM) was 0.537. The relative viability (Veliparib + Dasatinib; first compound 0.6325 µM) was 0.64, the relative viability (Veliparib + Dasatinib; first compound 2 µM) was 0.522 and the relative viability ([1]; first compound 0.08 µM) was 0.738. It also gave a relative viability ([1]; first compound 0.253 µM) of 0.783, a relative viability ([1]; first compound 0.8 µM) of 0.785 and a relative viability ([1]; first compound 2.53 µM) of 0.759. The relative viability ([1]; first compound 8 µM) was 0.741, the relative viability (Veliparib + Palbociclib; first compound 0.06325 µM) was 0.569 and the relative viability (Veliparib + Palbociclib; first compound 0.2 µM) was 0.59. For the same cell line, the relative viability (Veliparib + Palbociclib; first compound 0.6325 µM) was 0.614, the relative viability (Veliparib + Palbociclib; first compound 2 µM) was 0.636 and the relative viability ([2]; first compound 0.08 µM) was 0.934. The relative viability ([2]; first compound 0.253 µM) was 1.16, the relative viability ([2]; first compound 0.8 µM) was 1.15 and the relative viability ([2]; first compound 2.53 µM) was 1.2. The relative viability ([2]; first compound 8 µM) was 1.04.
Work on NCI-H2009 yielded a relative viability (Veliparib + Dasatinib; first compound 0.02 µM) of 0.332, a relative viability (Veliparib + Dasatinib; first compound 0.06325 µM) of 0.319 and a relative viability (Veliparib + Dasatinib; first compound 0.2 µM) of 0.331. For the same cell line, the relative viability (Veliparib + Dasatinib; first compound 0.6325 µM) was 0.29, the relative viability (Veliparib + Dasatinib; first compound 2 µM) was 0.292 and the relative viability ([1]; first compound 0.08 µM) was 1.21. For the same cell line, the relative viability ([1]; first compound 0.253 µM) was 1.17, the relative viability ([1]; first compound 0.8 µM) was 1.13 and the relative viability ([1]; first compound 2.53 µM) was 1.21. The relative viability ([1]; first compound 8 µM) was 1.19, the relative viability (Veliparib + Palbociclib; first compound 0.02 µM) was 0.145 and the relative viability (Veliparib + Palbociclib; first compound 0.06325 µM) was 0.211. For the same cell line, the relative viability (Veliparib + Palbociclib; first compound 0.2 µM) was 0.235, the relative viability (Veliparib + Palbociclib; first compound 0.6325 µM) was 0.205 and the relative viability (Veliparib + Palbociclib; first compound 2 µM) was 0.2. It also gave a relative viability ([2]; first compound 0.08 µM) of 0.771, a relative viability ([2]; first compound 0.253 µM) of 0.967 and a relative viability ([2]; first compound 0.8 µM) of 0.958. It also gave a relative viability ([2]; first compound 2.53 µM) of 0.975 and a relative viability ([2]; first compound 8 µM) of 0.84.
NCI-H2023 gave a relative viability (Veliparib + Dasatinib; first compound 0.02 µM) of 0.511, a relative viability (Veliparib + Dasatinib; first compound 0.06325 µM) of 0.596 and a relative viability (Veliparib + Dasatinib; first compound 0.2 µM) of 0.532. It also gave a relative viability (Veliparib + Dasatinib; first compound 0.6325 µM) of 0.547, a relative viability (Veliparib + Dasatinib; first compound 2 µM) of 0.625 and a relative viability ([1]; first compound 0.08 µM) of 0.576. The relative viability ([1]; first compound 0.253 µM) was 0.645, the relative viability ([1]; first compound 0.8 µM) was 0.64 and the relative viability ([1]; first compound 2.53 µM) was 0.7. For the same cell line, the relative viability ([1]; first compound 8 µM) was 0.637, the relative viability (Veliparib + Palbociclib; first compound 0.06325 µM) was 0.329 and the relative viability (Veliparib + Palbociclib; first compound 0.2 µM) was 0.391. The relative viability (Veliparib + Palbociclib; first compound 0.6325 µM) was 0.346, the relative viability (Veliparib + Palbociclib; first compound 2 µM) was 0.398 and the relative viability ([2]; first compound 0.08 µM) was 0.728. It also gave a relative viability ([2]; first compound 0.253 µM) of 1.05, a relative viability ([2]; first compound 0.8 µM) of 0.944 and a relative viability ([2]; first compound 2.53 µM) of 1.03. For the same cell line, the relative viability ([2]; first compound 8 µM) was 0.878.
Work on NCI-H2085 yielded a relative viability (Veliparib + Dasatinib; first compound 0.02 µM) of 0.239, a relative viability (Veliparib + Dasatinib; first compound 0.06325 µM) of 0.213 and a relative viability (Veliparib + Dasatinib; first compound 0.2 µM) of 0.262. It also gave a relative viability (Veliparib + Dasatinib; first compound 0.6325 µM) of 0.252, a relative viability (Veliparib + Dasatinib; first compound 2 µM) of 0.246 and a relative viability ([1]; first compound 0.08 µM) of 0.794. The relative viability ([1]; first compound 0.253 µM) was 0.921, the relative viability ([1]; first compound 0.8 µM) was 0.931 and the relative viability ([1]; first compound 2.53 µM) was 0.925. For the same cell line, the relative viability ([1]; first compound 8 µM) was 0.934, the relative viability (Veliparib + Palbociclib; first compound 0.02 µM) was 0.454 and the relative viability (Veliparib + Palbociclib; first compound 0.06325 µM) was 0.476. For the same cell line, the relative viability (Veliparib + Palbociclib; first compound 0.2 µM) was 0.477, the relative viability (Veliparib + Palbociclib; first compound 0.6325 µM) was 0.471 and the relative viability (Veliparib + Palbociclib; first compound 2 µM) was 0.479. For the same cell line, the relative viability ([2]; first compound 0.08 µM) was 1.05, the relative viability ([2]; first compound 0.253 µM) was 1.24 and the relative viability ([2]; first compound 0.8 µM) was 1.14. The relative viability ([2]; first compound 2.53 µM) was 1.1 and the relative viability ([2]; first compound 8 µM) was 1.08.
NCI-H2087 gave a relative viability (Veliparib + Dasatinib; first compound 0.02 µM) of 0.738, a relative viability (Veliparib + Dasatinib; first compound 0.06325 µM) of 0.731 and a relative viability (Veliparib + Dasatinib; first compound 0.2 µM) of 0.886. For the same cell line, the relative viability (Veliparib + Dasatinib; first compound 0.6325 µM) was 0.788, the relative viability (Veliparib + Dasatinib; first compound 2 µM) was 0.942 and the relative viability ([1]; first compound 0.08 µM) was 0.902. The relative viability ([1]; first compound 0.253 µM) was 0.969, the relative viability ([1]; first compound 0.8 µM) was 0.95 and the relative viability ([1]; first compound 2.53 µM) was 0.883. For the same cell line, the relative viability ([1]; first compound 8 µM) was 0.921, the relative viability (Veliparib + Palbociclib; first compound 0.02 µM) was 0.183 and the relative viability (Veliparib + Palbociclib; first compound 0.06325 µM) was 0.222. The relative viability (Veliparib + Palbociclib; first compound 0.2 µM) was 0.249, the relative viability (Veliparib + Palbociclib; first compound 0.6325 µM) was 0.264 and the relative viability (Veliparib + Palbociclib; first compound 2 µM) was 0.216. The relative viability ([2]; first compound 0.08 µM) was 0.863, the relative viability ([2]; first compound 0.253 µM) was 0.775 and the relative viability ([2]; first compound 0.8 µM) was 0.898. For the same cell line, the relative viability ([2]; first compound 2.53 µM) was 0.754 and the relative viability ([2]; first compound 8 µM) was 0.606.
For NCI-H2126, the relative viability (Veliparib + Dasatinib; first compound 0.02 µM) was 0.618, the relative viability (Veliparib + Dasatinib; first compound 0.06325 µM) was 0.539 and the relative viability (Veliparib + Dasatinib; first compound 0.2 µM) was 0.612. It also gave a relative viability (Veliparib + Dasatinib; first compound 0.6325 µM) of 0.658, a relative viability (Veliparib + Dasatinib; first compound 2 µM) of 0.668 and a relative viability ([1]; first compound 0.08 µM) of 0.735. It also gave a relative viability ([1]; first compound 0.253 µM) of 0.754, a relative viability ([1]; first compound 0.8 µM) of 0.686 and a relative viability ([1]; first compound 2.53 µM) of 0.737. For the same cell line, the relative viability ([1]; first compound 8 µM) was 0.727, the relative viability (Veliparib + Palbociclib; first compound 0.02 µM) was 0.357 and the relative viability (Veliparib + Palbociclib; first compound 0.06325 µM) was 0.357. It also gave a relative viability (Veliparib + Palbociclib; first compound 0.2 µM) of 0.373, a relative viability (Veliparib + Palbociclib; first compound 0.6325 µM) of 0.33 and a relative viability (Veliparib + Palbociclib; first compound 2 µM) of 0.313. For the same cell line, the relative viability ([2]; first compound 0.08 µM) was 1.06, the relative viability ([2]; first compound 0.253 µM) was 1.09 and the relative viability ([2]; first compound 0.8 µM) was 1.15. It also gave a relative viability ([2]; first compound 2.53 µM) of 1.12 and a relative viability ([2]; first compound 8 µM) of 1.05.
With NCI-H2228 the relative viability (Veliparib + Dasatinib; first compound 0.02 µM) was 0.51, the relative viability (Veliparib + Dasatinib; first compound 0.06325 µM) was 0.509 and the relative viability (Veliparib + Dasatinib; first compound 0.2 µM) was 0.508. For the same cell line, the relative viability (Veliparib + Dasatinib; first compound 0.6325 µM) was 0.357, the relative viability (Veliparib + Dasatinib; first compound 2 µM) was 0.467 and the relative viability ([1]; first compound 0.08 µM) was 0.77. For the same cell line, the relative viability ([1]; first compound 0.253 µM) was 0.733, the relative viability ([1]; first compound 0.8 µM) was 0.971 and the relative viability ([1]; first compound 2.53 µM) was 0.578. It also gave a relative viability ([1]; first compound 8 µM) of 0.58, a relative viability (Veliparib + Palbociclib; first compound 0.02 µM) of 0.553 and a relative viability (Veliparib + Palbociclib; first compound 0.06325 µM) of 0.897. The relative viability (Veliparib + Palbociclib; first compound 0.2 µM) was 0.645, the relative viability (Veliparib + Palbociclib; first compound 0.6325 µM) was 0.774 and the relative viability (Veliparib + Palbociclib; first compound 2 µM) was 0.759. The relative viability ([2]; first compound 0.08 µM) was 1.22, the relative viability ([2]; first compound 0.253 µM) was 1.03 and the relative viability ([2]; first compound 0.8 µM) was 0.93. The relative viability ([2]; first compound 2.53 µM) was 1.18 and the relative viability ([2]; first compound 8 µM) was 0.863.
